Measured values from US9273036B2, “Oxindole derivatives carrying an oxetane substituent and use thereof for treating vasopressine-related diseases” (AbbVie Deutschland GmbH & Co. KG, priority 2013, dated 2016).

The compounds below were run against T1, human vasopressin V1b receptor (Homo sapiens, UniProt P47901) (assay: biochemical).
T1 sequence (P47901 1-424): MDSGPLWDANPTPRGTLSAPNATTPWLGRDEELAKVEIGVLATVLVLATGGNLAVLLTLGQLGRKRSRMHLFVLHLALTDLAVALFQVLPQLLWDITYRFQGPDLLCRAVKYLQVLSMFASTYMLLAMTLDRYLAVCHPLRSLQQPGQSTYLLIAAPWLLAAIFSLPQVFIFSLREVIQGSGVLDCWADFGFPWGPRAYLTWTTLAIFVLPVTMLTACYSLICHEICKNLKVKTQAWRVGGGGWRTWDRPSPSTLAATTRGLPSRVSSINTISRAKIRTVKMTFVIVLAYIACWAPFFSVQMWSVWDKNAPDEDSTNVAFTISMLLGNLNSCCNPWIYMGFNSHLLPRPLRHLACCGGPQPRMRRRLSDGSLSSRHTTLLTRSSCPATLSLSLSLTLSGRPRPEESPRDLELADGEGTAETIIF

SMILES	Ki
CCOc1ncccc1[C@]1(NC(=O)N2CCN(C3CCN(C4COC4)CC3)CC2)C(=O)N(S(=O)(=O)c2ccc(OC)cc2OC)c2ccc(C#N)cc21 [Example 1, (S)—N-(5-cyano-1-((2,4-dimethoxyphenyl)sulfonyl)-3-(2-ethoxypyridin-3-yl)-2-oxoindolin-3-yl)-4-(1-(oxetan-3-yl)piperidin-4-yl)piperazine-1-carboxamide]	< 1 nM
CCOc1ncccc1[C@]1(NC(=O)N2CCN(C3CCN(C4COC4)CC3)CC2)C(=O)N(S(=O)(=O)c2ccc(C#N)cc2)c2ccc(C#N)cc21 [Example 5, (S)—N-(5-cyano-1-((4-cyanophenyl)sulfonyl)-3-(2-ethoxypyridin-3-yl)-2-oxoindolin-3-yl)-4-(1-(oxetan-3-yl)piperidin-4-yl)piperazine-1-carboxamide]	1 to 10 nM
CCOc1ncccc1C1(NC(=O)N2CCN(C3CCN(C4COC4)CC3)CC2)C(=O)N(S(=O)(=O)c2ccc(OC)cc2)c2ccc(C#N)cc21 (centres unmarked) [Example 3, N-(5-cyano-3-(2-ethoxypyridin-3-yl)-1-((4-methoxyphenyl)sulfonyl)-2-oxoindolin-3-yl)-4-(1-(oxetan-3-yl)piperidin-4-yl)piperazine-1-carboxamide]	1 to 10 nM
CCOc1ncccc1[C@]1(NC(=O)N2CCN(C3CCN(C4COC4)CC3)CC2)C(=O)N(S(=O)(=O)c2cc(F)c(OC)cc2OC)c2ccc(C#N)cc21 [Example 8, (S)—N-(5-cyano-3-(2-ethoxypyridin-3-yl)-1-((5-fluoro-2,4-dimethoxyphenyl)sulfonyl)-2-oxoindolin-3-yl)-4-(1-(oxetan-3-yl)piperidin-4-yl)piperazine-1-carboxamide]	1 to 10 nM
CCOc1ncccc1C1(NC(=O)N2CCN(C3CCN(C4COC4)CC3)CC2)C(=O)N(S(=O)(=O)c2ccccc2)c2ccc(C#N)cc21 (centres unmarked) [Example 4, N-(5-cyano-3-(2-ethoxypyridin-3-yl)-2-oxo-1-(phenylsulfonyl)indolin-3-yl)-4-(1-(oxetan-3-yl)piperidin-4-yl)piperazine-1-carboxamide]	10 to 100 nM
CCOc1ncccc1[C@]1(NC(=O)N2CCN(C3CCN(C4COC4)CC3)CC2)C(=O)N(S(=O)(=O)c2ccc(OC)cc2F)c2ccc(C#N)cc21 [Example 6, (S)—N-(5-cyano-3-(2-ethoxypyridin-3-yl)-1-((2-fluoro-4-methoxyphenyl)sulfonyl)-2-oxoindolin-3-yl)-4-(1-(oxetan-3-yl)piperidin-4-yl)piperazine-1-carboxamide]	1 to 10 nM

Other lines, results leading:

Ki	SMILES
1 to 10 nM	CCOc1ncccc1[C@]1(NC(=O)N2CCN(C3CCN(C4COC4)CC3)CC2)C(=O)N(S(=O)(=O)c2ccc(OC)cc2OC)c2cc(F)c(F)cc21 [Example 9, (S)—N-(1-((2,4-dimethoxyphenyl)sulfonyl)-3-(2-ethoxypyridin-3-yl)-5,6-difluoro-2-oxoindolin-3-yl)-4-(1-(oxetan-3-yl)piperidin-4-yl)piperazine-1-carboxamide]
10 to 100 nM	CCOc1ncccc1[C@]1(NC(=O)N2CCC(N3CCN(C4COC4)CC3)CC2)C(=O)N(S(=O)(=O)c2ccc(OC)cc2)c2ccc(C#N)cc21 [Example 13, (S)—N-(5-cyano-3-(2-ethoxypyridin-3-yl)-1-((4-methoxyphenyl)sulfonyl)-2-oxoindolin-3-yl)-4-(4-(oxetan-3-yl)piperazin-1-yl)piperidine-1-carboxamide]
10 to 100 nM	CCOc1ncccc1[C@]1(NC(=O)N2CCC(N3C[C@@H]4C[C@H]3CN4C3COC3)CC2)C(=O)N(S(=O)(=O)c2ccc(OC)cc2OC)c2ccc(C#N)cc21 [Example 17, N—((S)-5-cyano-1-((2,4-dimethoxyphenyl)sulfonyl)-3-(2-ethoxypyridin-3-yl)-2-oxoindolin-3-yl)-4-((1S,4S)-5-(oxetan-3-yl)-2,5-diazabicyclo[2.2.1]heptan-2-yl)piperidine-1-carboxamide]
1 to 10 nM	CCOc1ncccc1[C@]1(NC(=O)N2CCC(N3CCN(C4COC4)CC3)CC2)C(=O)N(S(=O)(=O)c2ccc(OC)cc2OC)c2ccc(Cl)cc21 [Example 14, (S)—N-(5-chloro-1-((2,4-dimethoxyphenyl)sulfonyl)-3-(2-ethoxypyridin-3-yl)-2-oxoindolin-3-yl)-4-(4-(oxetan-3-yl)piperazin-1-yl)piperidine-1-carboxamide]
1 to 10 nM	COc1ccc(S(=O)(=O)N2C(=O)C(NC(=O)N3CCN(C4CCN(C5COC5)CC4)CC3)(c3cccnc3OC)c3cc(C#N)ccc32)c(OC)c1 (centres unmarked) [Example 15, N-(5-cyano-1-((2,4-dimethoxyphenyl)sulfonyl)-3-(2-methoxypyridin-3-yl)-2-oxoindolin-3-yl)-4-(1-(oxetan-3-yl)piperidin-4-yl)piperazine-1-carboxamide]
< 1 nM	CCOc1ncccc1[C@]1(NC(=O)N2CCN(C3CCN(C4COC4)CC3)CC2)C(=O)N(S(=O)(=O)c2ccc(OC)cc2OC)c2ccc(Cl)cc21 [Example 10, (S)—N-(5-chloro-1-((2,4-dimethoxyphenyl)sulfonyl)-3-(2-ethoxypyridin-3-yl)-2-oxoindolin-3-yl)-4-(1-(oxetan-3-yl)piperidin-4-yl)piperazine-1-carboxamide]
10 to 100 nM	CCOc1ncccc1[C@]1(NC(=O)N2CCN(C3CCN(C4COC4)CC3)CC2)C(=O)N(S(=O)(=O)c2ccc(OC)c(C)c2C)c2ccc(C#N)cc21 [Example 18, (S)—N-(5-cyano-3-(2-ethoxypyridin-3-yl)-1-((4-methoxy-2,3-dimethylphenyl)sulfonyl)-2-oxoindolin-3-yl)-4-(1-(oxetan-3-yl)piperidin-4-yl)piperazine-1-carboxamide]
10 to 100 nM	CCOc1ncccc1[C@]1(NC(=O)N2CCC(N3CCN(C4COC4)CC3)CC2)C(=O)N(S(=O)(=O)c2ccc(C#N)cc2)c2ccc(C#N)cc21 [Example 12, (S)—N-(5-cyano-1-((4-cyanophenyl)sulfonyl)-3-(2-ethoxypyridin-3-yl)-2-oxoindolin-3-yl)-4-(4-(oxetan-3-yl)piperazin-1-yl)piperidine-1-carboxamide]
